Test results: patent US20040138160A1, “Preventive/therapeutic method for cancer” (priority 2001, published 2004)

SMILES	melting point [°C]
Cc1ccccc1/C=C/c1nc(COc2ccc(CCCCn3ccnc3CCO)cc2)co1 [Compound B12, 2-[1-[4-[4-[[2-[(E)-2-(2-methylphenyl)ethenyl]-1,3-oxazol-4-yl]methoxy]phenyl]butyl]-1H-imidazol-2-yl]-1-ethanol]	91 to 93
Fc1ccc(/C=C/c2nc(COc3ccc(CCCCn4ccnn4)cc3)co2)c(F)c1 [Compound B7, 1-{4-[4-({2-[(E)-2-(2,4-difluorophenyl)ethenyl]-1,3-oxazol-4-yl}methoxy)phenyl]butyl}-1H-1,2,3-triazole]	115 to 117
Cc1cccc(/C=C/c2nc(COc3ccc(CCCCn4ccnc4CCO)cc3)co2)c1 [Compound B11, 2-[1-[4-[4-[[2-[(E)-2-(3-methylphenyl)ethenyl]-1,3-oxazol-4-yl]methoxy]phenyl]butyl]-1H-imidazol-2-yl]-1-ethanol]	109 to 111
CCc1ccc(/C=C/c2nc(COc3ccc(CCCCn4ccnc4CCO)cc3)co2)cc1 [Compound B13, 2-[1-[4-[4-[[2-[(E)-2-(4-ethylphenyl)ethenyl]-1,3-oxazol-4-yl]methoxy]phenyl]butyl]-1H-imidazol-2-yl]-1-ethanol]	94 to 95
Cc1ccc(/C=C/c2nc(COc3ccc(CCCCn4ccnc4CCO)cc3)co2)cc1 [Compound B10, 2-[1-[4-[4-[[2-[(E)-2-(4-methylphenyl)ethenyl]-1,3-oxazol-4-yl]methoxy]phenyl]butyl]-1H-imidazol-2-yl]-1-ethanol]	108 to 109
OCCc1nccn1CCCCc1ccc(OCc2coc(/C=C/c3ccc(Cl)cc3)n2)cc1 [Compound B15, 2-[1-[4-[4-[[2-[(E)-2-(4-chlorophenyl)ethenyl]-1,3-oxazol-4-yl]methoxy]phenyl]butyl]-1H-imidazol-2-yl]-1-ethanol]	127 to 128
FC(F)(F)c1ccc(/C=C/c2nc(COc3cccc(CCCn4ccnn4)c3)co2)cc1 [Compound B6, 1-(3-{3-[(2-{(E)-2-[4-(trifluoromethyl)phenyl]ethenyl}-1,3-oxazol-4-yl)methoxy]phenyl}propyl)-1H-1,2,3-triazole]	115 to 116
FC(F)(F)c1ccc(/C=C/c2nc(COc3ccc(CCCn4ccnn4)cc3)co2)cc1 [Compound B5, 1-(3-{4-[(2-((E)-2-[4-(trifluoromethyl)phenyl]ethenyl)-1,3-oxazol-4-yl)methoxy]phenyl}propyl)-1H-1,2,3-triazole]	157 to 158
OCCc1nccn1CCCCc1ccc(OCc2coc(/C=C/c3ccc(Br)cc3)n2)cc1 [Compound B16, 2-[1-[4-[4-[[2-[(E)-2-(4-bromophenyl)ethenyl]-1,3-oxazol-4-yl]methoxy]phenyl]butyl]-1H-imidazol-2-yl]-1-ethanol]	149 to 150
OCCc1nccn1CCCCc1ccc(OCc2coc(/C=C/c3ccc(F)cc3F)n2)cc1 [Compound B19, 2-[1-[4-[4-[[2-[(E)-2-(2,4-difluorophenyl)ethenyl]-1,3-oxazol-4-yl]methoxy]phenyl]butyl]-1H-imidazol-2-yl]-1-ethanol]	93 to 95
Fc1ccc(/C=C/c2nc(COc3cccc(CCCn4ccnn4)c3)co2)c(F)c1 [Compound B8, 1-{3-[3-({2-[(E)-2-(2,4-difluorophenyl)ethenyl]-1,3-oxazol-4-yl}methoxy)phenyl]propyl}-1H-1,2,3-triazole]	89 to 90
OCCc1nccn1CCCCc1ccc(OCc2coc(/C=C/c3ccc(F)cc3)n2)cc1 [Compound B14, 2-(1-{4-[4-({2-[(E)-2-(4-fluorophenyl)ethenyl]-1,3-oxazol-4-yl}methoxy)phenyl]butyl)-1H-imidazol-2-yl)-1-ethanol]	130 to 132

The next lines start with the values.

melting point [°C]	SMILES
94 to 96	OCCc1nccn1CCCc1ccc(OCc2coc(/C=C/c3ccc(F)cc3F)n2)cc1 [Compound B20, 2-[1-[3-[4-[[2-[(E)-2-(2,4-difluorophenyl)ethenyl]-1,3-oxazol-4-yl]methoxy]phenyl]propyl]-1H-imidazol-2-yl]-1-ethanol]
102 to 104	OCC(O)Cc1nccn1CCCc1cccc(OCc2coc(/C=C/c3ccc(C(F)(F)F)cc3)n2)c1 (stereo not shown) [Compound B25, 3-[1-(3-{3-[(2-{(E)-2-[4-(trifluoromethyl)phenyl]ethenyl}-1,3-oxazol-4-yl)methoxy]phenyl}propyl)-1H-imidazol-2-yl]-1,2-propanediol]
92 to 94	OCC(O)Cc1nccn1CCCc1cccc(OCc2coc(/C=C/c3ccc(F)cc3F)n2)c1 (stereo not shown) [Compound B27, 3-(1-{3-[3-({2-[(E)-2-(2,4-difluorophenyl)ethenyl]-1,3-oxazol-4-yl}methoxy)phenyl]propyl}-1H-imidazol-2-yl)-1,2-propanediol]
114 to 116	OCC(O)Cc1nccn1CCCCc1ccc(OCc2coc(/C=C/c3ccc(F)cc3)n2)cc1 (stereo not shown) [Compound B23, 3-(1-{4-[4-({2-[(E)-2-(4-fluorophenyl)ethenyl]-1,3-oxazol-4-yl}methoxy)phenyl]butyl}-1H-imidazol-2-yl)-1,2-propanediol]
126 to 128	OCC(O)Cc1nccn1CCCCc1ccc(OCc2coc(/C=C/c3ccc(F)cc3F)n2)cc1 (stereo not shown) [Compound B26, 3-(1-{4-[4-({2-[(E)-2-(2,4-difluorophenyl)ethenyl]-1,3-oxazol-4-yl}methoxy)phenyl]butyl}-1H-imidazol-2-yl)-1,2-propanediol]
142 to 143	OCC(O)Cc1nccn1CCCCc1ccc(OCc2coc(/C=C/c3ccc(C(F)(F)F)cc3)n2)cc1 (stereo not shown) [Compound B24, 3-[1-(4-(4-[(2-{(E)-2-[4-(trifluoromethyl)phenyl]ethenyl}-1,3-oxazol-4-yl)methoxy]phenyl]butyl)-1H-imidazol-2-yl]-1,2-propanediol]
123 to 125	OCC(O)Cc1nccn1CCCCc1ccc(OCc2coc(/C=C/c3c(F)cccc3F)n2)cc1 (stereo not shown) [Compound B28, 3-[1-[4-[4-[[2-[(E)-2-(2,6-difluorophenyl)ethenyl]-1,3-oxazol-4-yl]methoxy]phenyl]butyl]-1H-imidazol-2-yl]-1,2-propanediol]
